Data: a melting point compilation (Tetko et al.)

| SMILES | melting point [°C] |
| --- | --- |
| Cc1ccc(-c2ccc(C)c(C)c2)cc1C | 76 |
| CNC(C)Cc1ccc(O)cc1 (stereo unspecified) | 161 |
| CC(=O)/C(=N\Nc1cccc([N+](=O)[O-])c1)C(=O)C(F)(F)F | 205 to 206 |
| CCOC(=O)C(C)(C)N1CCN(c2ccc(Cl)cc2)CC1 | 56 |
| CC(=O)Nc1ccc(-c2csc(N)n2)cc1 | 250 |
| CN(CC(=O)N1CCOCC1)Cc1c(Cl)cccc1NC(=O)c1ccccc1 | 123 |
| O=C(CNc1ccccc1)c1ccc(C(=O)CNc2ccccc2)cc1 | > 200 |
| O=C=NS(=O)(=O)Cl | -44 |
| NC(=S)Nc1ccc(I)cc1 | 183 to 184 |
| CC(=O)CC[C@H]1[C@@H](C#N)[C@H](C(C)C)CC[C@@]1(C)OC(C)=O | 106 to 109 |
| COc1c2ccoc2cc2oc(C)cc(=O)c12 | 144 |
| O=Cc1ccc(Cn2cncn2)cc1 | 73 to 75 |
| Cc1nc(Cl)c2c(C)c(C)sc2n1 | 115 to 116 |
| Cc1ccc2cc(C)ccc2c1 | 112 |
| COc1ccc(NCC(=O)Nc2ccc(OC)cc2)cc1 | 132 |
| O=[N+]([O-])c1ccccc1N=C=S | 75 |
| O=[N+]([O-])c1cccc2nsnc12 | 106 to 110 |
| CN(C)c1cccc2c(S(=O)(=O)F)cccc12 | 52 |
| Nc1cccc(-c2cccc(N)c2)c1 | 93.5 |
| Nc1cc(F)ccc1C(F)(F)F | 31 |
| c1c2c(cc3c1CCCN3)NCCC2 | 113 |
| C=C(C)C1Cc2c(cc(O)c3c2OC2COc4cc(OC)c(OC)cc4C2C3=O)O1 (stereo unspecified) | 195 |

| SMILES | melting point [°C] |
| --- | --- |
| Cn1ncc2c(=N)n(N)cnc21 | 185 |
| O=C1CCC(=O)N1c1ccccc1 | 156 |
| O=C(C=CC1=NC=NC1)NCCc1cnc[nH]1 | 240 to 241 |
| O=C1[C@H]2CC[C@@H]1[C@H]1C=C[C@@H]2O1 | 97 |
| NNC(=O)CSc1ccnc2cc(Cl)ccc12 | 213 to 216 |
| O=C(NCCN=Cc1ccccn1)C(=O)NCc1ccccn1 | 125 |
| Nc1cccnc1Cl | 78 |
| CCCCCCCCOC(=O)CCCCC(=O)OCCCCCCCC | -70 |
| CC(C)(C)C(=O)Nc1ccncc1C(=O)O | 250 to 254 |
| c1ccc(C2Nn3c(nnc3-c3cccnc3)S2)cc1 (stereo unspecified) | 220 |
| O=C(O)C1C2CC3(OCCO3)C1CC2Cl (stereo unspecified) | 164 to 166 |
| O=C(N[C@@H]1CCCC[C@@H]1C(=O)O)c1ccccc1 | 204 to 208 |
| CCOc1cc(-c2nccc3cc(OC)c(OC)cc23)cc(OCC)c1OCC | 98 to 103 |
| O=S(=O)(Nc1ccc(F)cc1C(F)(F)F)C(F)(F)F | 45 |
| N#Cc1cccc(-n2cccc2C=O)c1 | 139 to 141 |
| N#Cc1ccccc1-n1cccc1 | 51 |
| O=C(Cc1ccccc1)OCCc1ccccc1 | 26.5 |
| C=C1C2CC(C(=C(c3ccccc3)c3ccccc3)C2c2ccccc2)C1(C)C (stereo unspecified) | 115 |
| CCC(C)c1cc([N+](=O)[O-])cc([N+](=O)[O-])c1OC(C)=O (stereo unspecified) | 26 |
| C/C(=N\c1ccc(C(=O)O)c(O)c1)c1c(O)c2ccccc2n(-c2ccccc2)c1=O | 177 |
| Nc1cc2nc3c(cc2cc1C=O)CCCC3 | 218 |
| O=C(CBr)Nc1ccccc1Cl | 89 to 91 |

| SMILES | melting point [°C] |
| --- | --- |
| CN(C)c1ccc(/C=C(\C#N)c2nc3ccccc3n2C)cc1 | 151 |
| O=C(O)c1csc(-c2ccc3c(c2)CCO3)n1 | 210 to 214 |
| O=C(O)CSc1nnc(S)s1 | 168 to 169 |
| NC(=O)c1cncc(Br)c1 | 226 |
| CSC(SC)=C(C#N)C(=O)c1cccc(Cl)c1 | 88 to 91 |
| O=C(CCl)Oc1ccc([N+](=O)[O-])cc1 | 73 to 75 |
| Brc1ccc(-c2ccc(Br)s2)s1 | 143 to 146 |
| NCCCCCC(=O)O | 211 |
| COC(=O)C=Cc1ccc(C=CC(=O)OC)c([N+](=O)[O-])c1 | 166 |
| Cc1nc(-c2ccccc2)sc1CO | 99 to 102 |
| Oc1c(Cl)cc(Cl)cc1Br | 68 |
| Cn1ccc(-c2ccc(C(=O)O)cc2)n1 | 240 to 242 |
| BrCc1nc2ccccc2s1 | 47 |
| O=S(=O)(Cl)c1cccc(Cl)c1Cl | 61 to 63 |
| CC(C)NCC(O)COc1ccc(CCOCC2CC2)cc1 (stereo unspecified) | 71 |
| O=C(c1ccccc1)c1cnc2ccccn2c1=O | 152 to 153 |
| COc1ccc(C(C)=O)cc1CCl | 116 to 118 |
| CC(C)(C)NC(=O)C1CCC2CC34CCC(CC=C3C=C(O)C=O)C4CCC21C (stereo unspecified) | 257 |
| O=C1C=C(NCc2ccccn2)C(=O)c2ccccc21 | 149 |
| c1csc(-c2cc[nH]n2)c1 | 97 to 99 |
| CCOC(=O)C(C#N)=C(N)c1cc2cc(Br)ccc2oc1=O | 270 to 272 |
| CC(=O)N(c1onc(C)c1C)S(=O)(=O)c1ccc(N)cc1 | 194 |

| SMILES | melting point [°C] |
| --- | --- |
| O=C(O)c1cccc(S(=O)(=O)Cl)c1 | 135 |
| COc1cc(N)ncn1 | 100 |
| CN1C2CCCC1CC(=O)C2 | 63 to 65 |
| O=[N+]([O-])c1ccc2c(c1)c(CO)cn2Cc1ccccc1 | 104 to 106 |
| CC(C)(C)OC(=O)N1C2CCC1CC(=O)C2 | 58 to 59 |
| CC1CS(=O)(=O)CCN1N=Cc1ccc([N+](=O)[O-])o1 (stereo unspecified) | 181 |
| Brc1ccc(Oc2c(Br)cccc2Br)cc1 | 77 to 77.5 |
| O=Cc1ccccc1O | -3.5 |
| O=Cc1ccc2sccc2c1 | 53 to 54 |
| CC(C)=C1OC(=O)N(c2cc(OC3CCCC3)c(Cl)cc2F)C1=O | 104 |
| Brc1ccc(N2CCCC2)cc1 | 105 to 106 |
| CC(C)(C)OC(=O)C1(S(=O)(=O)c2ccc(Cl)cc2)CC1 | 110 |
| CCOC(=O)c1c(N=C=S)sc2c1CCCC2 | 45 to 46 |
| CN1c2ccccc2Sc2ccc(CC(=O)O)cc21 | 146 |
| C1COCCOCCOCCOCCOCCO1 | 39 |
| COC(=O)c1cnc(SC)n1C | 53 to 55 |
| CCOC(=O)C1=C(C)NC(=O)NC1c1ccc2c(c1)OCO2 (stereo unspecified) | 189 |
| CCOC(=O)CON=C(c1cc2ccccc2o1)C1CC(C)(c2ccccc2)C1 (stereo unspecified) | 155 to 156 |
| Nc1c(Br)cc(Cl)cc1Br | 93 to 95 |
| O=C1OC(c2ccccn2)Cc2ccccc21 (stereo unspecified) | 156 |
| N#Cc1c(F)cc(Cl)cc1F | 102 |
| Cc1nn2c(C)nnc2s1 | 93 |

| SMILES | melting point [°C] |
| --- | --- |
| Cc1ccc(Sc2ccc(C=O)cc2[N+](=O)[O-])cc1 | 138 to 141 |
| O=[N+]([O-])c1ncc[nH]1 | 287 |
| O=C(O)Cc1cc(F)ccc1F | 125 |
| Cc1cc(N=Nc2ccccc2)c(C(C)C)cc1N=Nc1ccccc1 | 108 |
| CCCCCCCOc1ccc(N)cc1 | 45 |
| Cc1nccc(-c2cccc(Br)c2)n1 | 66 to 69 |
| FC(F)(F)C1(F)C(F)(F)C(F)(F)C(F)(F)C(F)(F)C1(F)F | -37 |
| CC(O)CN(CC(C)O)C(=O)COC(=O)c1ccccc1 (stereo unspecified) | 106 |
| CC#CC(C)C | -110 |
| c1cncc(-c2cccnc2)c1 | 68 |
| N#CC1=C(N)n2nc(C(F)(F)F)nc2NC1c1ccco1 (stereo unspecified) | 260 |
| ON=CNc1ccc(Cl)nn1 | 207 to 211 |
| NC(=O)Cc1nc(-c2ccc(F)cc2)cs1 | 182 |
| CCC(C(=O)O)c1ccccc1 (stereo unspecified) | 47.5 |
| O=[N+]([O-])c1ccc2c(c1)OCCOCCOCCOCCO2 | 95 to 98 |
| CCC1(C)CC(=O)NC(=O)C1 | 126 |
| OCc1ccc(F)cc1 | 23 |
| Clc1c(Cl)c(Cl)c2ccccc2c1Cl | 198 |
| COC(=O)c1ccc2cc(OC)ccc2c1 | 130 |
| CCCOc1cc(O)cc(OCCC)c1 | 43 to 48 |
| CCCCCOC(=O)CCC(=O)OCCCCC | -10.8 |
| Sc1c(Cl)c(Cl)cc(Cl)c1Cl | 105 to 107 |

| SMILES | melting point [°C] |
| --- | --- |
| CC(C)CCCC(C)CCCC(C)CCCCC(C)CCCC(C)CCCC(C)C (stereo unspecified) | -38 |
| O=Cc1cccc2cccnc12 | 93 |
| O=C(C1=NOC2C(=O)N(c3ccc(Br)cc3)C(=O)C12)c1ccc(Cl)cc1 (stereo unspecified) | 184 |
| O=C(Cc1ccccc1)OC(=O)Cc1ccccc1 | 73.3 |
| O=C(Oc1ccccc1)c1ccc(C(=O)Oc2ccccc2)cc1 | 197 |
| CC1(C)C(=O)OC2=C(CCCC2)C1c1ccccc1 (stereo unspecified) | 95 |
| NC(=S)Nc1cccnc1 | 159 to 160 |
| Cc1nc([N+](=O)[O-])cn1CCC#N | 115 |
| COC(=O)c1ccc(CCl)cc1 | 40 |
| CC(=O)c1cc(Cl)sc1Cl | 38 |
| N#CCc1nn(-c2ccccc2)c(N)c1C#N | 164 |
| O=C(CC(=O)c1ccccc1)c1ccccc1 | 78 |
| CC(CCC(=O)O)C1CCC2C3CCC4CC(=O)CCC4(C)C3CC(O)C12C (stereo unspecified) | 107 to 109 |
| CCC1(C(=O)NC(C)c2ccc(Cl)cc2)C(C)C1(Cl)Cl (stereo unspecified) | 160 |
| C#CCOc1c(Cl)cccc1Cl | 43.5 |
| C#CCl | -126 |
| CC(CCC(=O)O)C1CCC2C3C(O)CC4CC(O)CCC4(C)C3CC(=O)C12C (stereo unspecified) | 220 |
| Cc1ccc(S(=O)(=O)NC(=O)NN2CCCCCC2)cc1 | 170 |
| O=S(=O)(Cl)Cc1ccc(Br)cc1 | 117 to 121 |
| CC(=O)c1ccc(N2CCNCC2)cc1 | 107 to 110 |
| CCSC(SCC)=C1CCCC(=C(SCC)SCC)C1=C(C#N)C#N | 100 to 102 |
